Common to all, as to type: cell-based
The target of one assay is T1, 5-HT2C (Homo sapiens, UniProt P28335).
T1 construct: host or cells: HEK293
T1 sequence (P28335 33-458): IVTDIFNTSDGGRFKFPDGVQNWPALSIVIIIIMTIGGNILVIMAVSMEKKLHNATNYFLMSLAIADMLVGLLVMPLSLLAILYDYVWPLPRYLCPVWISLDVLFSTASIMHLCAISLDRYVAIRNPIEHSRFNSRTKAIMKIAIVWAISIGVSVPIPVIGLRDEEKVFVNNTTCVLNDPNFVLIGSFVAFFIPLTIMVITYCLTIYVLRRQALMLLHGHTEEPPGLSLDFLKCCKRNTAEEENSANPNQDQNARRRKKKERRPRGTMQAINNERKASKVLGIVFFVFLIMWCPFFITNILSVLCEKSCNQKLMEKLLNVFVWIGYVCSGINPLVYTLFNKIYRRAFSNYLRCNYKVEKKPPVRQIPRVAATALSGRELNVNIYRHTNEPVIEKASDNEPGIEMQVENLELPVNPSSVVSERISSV
The assay is described as follows: FLIPR Ca2+ flux functional assay, 5-HT2C receptor (stably transfected HEK293). The method, then: (§1) Activity at 5-HT2A, 5-HT2B and 5-HT2C receptors was determined using a FLIPR Ca^2+ flux assay at WuXi AppTec Co. Ltd. (Hong Kong) Discovery Biology Unit according to their standard protocols. Briefly, stably transfected cells expressing the receptor of interest (HEK293 for 5-HT2A and 5-HT2C; CHO-K1 for 5-HT2B) were grown and plated in a 384 well plate and incubated at 37° C. and 5% CO2 overnight. A 250 mM stock solution of probenecid in FLIPR calcium assay buffer (10 mL) was freshly prepared and combined with a fluorescent dye (Fluo-4 Direct) to give a final assay concentration of 2.5 mM. Reference compounds were 4-fold serially diluted and the screening compounds were 3-fold serially diluted in 100% DMSO for 10 points using Agilent Bravo, and 750 nL was added to a 384 well compound plate using Echo along with 30 μL assay buffer. The fluorescent dye was then added to the assay plate along with assay buffer to a final volume of 40 μL. The cell plate was incubated for 50 min at 37° C. and 5% CO2 and placed into the FLIPR Tetra along with the compound plate. 10 μL of references and compounds were then transferred from the compound plate into the cell plate and the fluorescent signal was read.
A general note: A change in cytosolic calcium serves as a functional read-out for many receptors and channels.

In the next assay the target is T2, 5-HT2B (Homo sapiens, UniProt P41595).
T2 construct: host or cells: CHO-K1
Put plainly: FLIPR Ca2+ flux functional assay, 5-HT2B receptor (stably transfected CHO-K1). As to the method:
as §1

The next assay concerns the target T3, 5-HT2A (Homo sapiens, UniProt P28223).
T3 construct: host or cells: HEK293
Put plainly: FLIPR Ca2+ flux functional assay, 5-HT2A receptor (stably transfected HEK293). As to the method:
as §1

Where [1] appears, read: agonist activity, Ca2+ flux, HEK293.
Where [2] appears, read: agonist activity, Ca2+ flux, CHO-K1.
Setting [3] is: agonist activity, Ca2+ flux, HEK293, read-out: 5-HT2C EC50.
The mark [4] stands for this setting: agonist activity, Ca2+ flux, CHO-K1, read-out: 5-HT2B EC50.
Where [5] appears, read: agonist activity, Ca2+ flux, HEK293, read-out: 5-HT2A EC50.

Like-named read-outs stand apart in the source and are kept apart here.

T2 sequence (P41595 whole entry): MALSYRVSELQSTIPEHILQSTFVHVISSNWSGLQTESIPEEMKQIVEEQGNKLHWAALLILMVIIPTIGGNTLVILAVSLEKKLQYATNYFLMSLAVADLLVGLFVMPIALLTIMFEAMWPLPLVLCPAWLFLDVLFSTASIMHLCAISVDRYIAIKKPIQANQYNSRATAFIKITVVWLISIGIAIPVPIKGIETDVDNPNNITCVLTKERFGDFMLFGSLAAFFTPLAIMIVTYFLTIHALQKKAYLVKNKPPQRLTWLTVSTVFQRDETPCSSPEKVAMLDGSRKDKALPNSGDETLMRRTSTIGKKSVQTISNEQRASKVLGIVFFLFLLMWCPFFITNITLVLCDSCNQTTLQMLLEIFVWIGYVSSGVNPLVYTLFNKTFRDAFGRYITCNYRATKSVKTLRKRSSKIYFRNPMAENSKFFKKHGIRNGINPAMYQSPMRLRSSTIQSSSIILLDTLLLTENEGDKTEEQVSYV
T3 sequence (P28223 whole entry): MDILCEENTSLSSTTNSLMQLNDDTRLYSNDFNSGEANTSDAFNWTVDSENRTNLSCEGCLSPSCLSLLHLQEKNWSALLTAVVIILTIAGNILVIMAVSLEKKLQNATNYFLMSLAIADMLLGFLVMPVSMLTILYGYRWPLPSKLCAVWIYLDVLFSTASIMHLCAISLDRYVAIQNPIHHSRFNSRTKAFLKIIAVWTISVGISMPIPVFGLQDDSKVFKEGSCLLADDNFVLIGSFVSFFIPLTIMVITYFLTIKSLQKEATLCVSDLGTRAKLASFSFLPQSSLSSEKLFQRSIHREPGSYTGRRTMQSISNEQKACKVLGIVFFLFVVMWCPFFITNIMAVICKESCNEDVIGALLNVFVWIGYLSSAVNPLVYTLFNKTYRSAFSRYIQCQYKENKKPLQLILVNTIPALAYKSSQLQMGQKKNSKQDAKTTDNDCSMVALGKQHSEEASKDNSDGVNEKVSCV

Usually EC50 stands for the concentration that produces a half-maximal response. Usually Emax stands for the greatest response seen or fitted, relative to the assay's reference. As to `CCN(CC)CCc1cccc2ccc(OC)cc12` [Example I-2, N,N-diethyl-2-(7-methoxynaphthalen-1-yl)ethan-1-amine], the EC50 at 5-HT2C is 733 nM; at 5-HT2B it was > 10000 nM; on 5-HT2A, 360 nM. The Emax on 5-HT2C (setting [1]) came to 88%; on 5-HT2B (setting [2]), 12%; at 5-HT2A (setting [1]), 70%.
For the molecule `COc1ccc2cccc(CCN(C)C)c2n1` [Example I-8, 2-(2-methoxyquinolin-8-yl)-N,N-dimethylethan-1-amine], the Emax worked out at 87% on 5-HT2C (setting [1]) and 8% at 5-HT2B (setting [2]). In addition, the 50% effective concentration (EC50) at 5-HT2C (setting [3]) is 314 nM; at 5-HT2B (setting [4]), > 10000 nM. Further, the Emax at 10 µM at 5-HT2A (HEK293, @ 10 uM, no EC50 value given, read-out: 5-HT2A Emax (%) printed as % @ 10 uM) stood at 24%.
For `CCN(C)CCc1cccc2ccc(OC)cc12` [Example I-5, N-ethyl-2-(7-methoxynaphthalen-1-yl)-N-methylethan-1-amine], the half-maximal effective concentration (EC50) is 43 nM on 5-HT2C, > 10000 nM on 5-HT2B and 86 nM on 5-HT2A (setting [5]). Also, the figures for the Emax on 5-HT2C (setting [1]), on 5-HT2B (setting [2]) and on 5-HT2A (setting [1]) were 94%, 17% and 63%, respectively.
Regarding `CCCN(CCC)CCc1cccc2cccc(OC)c12` [Example I-23, N-(2-(8-methoxynaphthalen-1-yl)ethyl)-N-propylpropan-1-amine], the maximal response (Emax) at 5-HT2C (setting [1]) worked out at 88%; at 5-HT2B (setting [2]) it was 89%; at 5-HT2A (setting [1]), 93%. For the same molecule, the concentration giving a half-maximal response (EC50) worked out at 291 nM at 5-HT2C (setting [3]), 103 nM on 5-HT2B (setting [4]) and 165 nM on 5-HT2A (setting [5]).
In the case of `COc1cccc2cccc(CCN(C(C)C)C(C)C)c12` [Example I-24, N-isopropyl-N-(2-(8-methoxynaphthalen-1-yl)ethyl)propan-2-amine], the Emax came to 90% on 5-HT2C (setting [1]), 116% at 5-HT2B (setting [2]) and 98% on 5-HT2A (setting [1]). Also, the EC50 came to 2560 nM at 5-HT2C (setting [3]), 4700 nM at 5-HT2B (setting [4]) and 1470 nM on 5-HT2A (setting [5]).
Turning to `CCN(C)CCc1cccc2cccc(OC)c12` [Example I-25, N-ethyl-2-(8-methoxynaphthalen-1-yl)-N-methylethan-1-amine], the 50% effective concentration (EC50) at 5-HT2C was 201 nM; on 5-HT2B, > 10000 nM; at 5-HT2A, 158 nM. Moreover, the values for the Emax at 5-HT2C (setting [1]), on 5-HT2B (setting [2]) and at 5-HT2A (setting [1]) were 84%, 24% and 67%, respectively.
For `CCCN(C)CCc1cccc2cccc(OC)c12` [Example I-27, N-(2-(8-methoxynaphthalen-1-yl)ethyl)-N-methylpropan-1-amine], the EC50 is 211 nM on 5-HT2C, > 10000 nM on 5-HT2B and 213 nM on 5-HT2A. Also, the values for the Emax at 5-HT2C (setting [1]), on 5-HT2B (setting [2]) and on 5-HT2A (setting [1]) were 75%, 2% and 86%, respectively.

The record behind these values is patent publication US20250333371A1, “COMPOUNDS” (PSYLO PTY LTD, priority 2022, published 2025).
